The source made the active and inactive calls. The calls are words filed in the database; no cut-off is given here.
What was measured:
Mus musculus [1] = assay: In vivo PROTAC activity at CRBN/MNK1 in human MV4-11 cells xenografted in nude female NSG mouse assessed as reduction in phosphorylated eIF4E level at 20 mg/kg, ip qd administrated for 16 days by Western blot analysis; format: functional, organism-based; conditions: time 16.0 day
Mus musculus [2] = assay: In vivo PROTAC activity at CRBN/MNK1 in human MV4-11 cells xenografted in nude female NSG mouse assessed as induction of MNK1 degradation at 20 mg/kg, ip qd administrated for 16 days by Western blot analysis; format: functional, organism-based; conditions: time 16.0 day
MV4-11 [3] = assay: Anti-proliferative activity against human MV4-11 cells measured after 72 hrs by CCK8 assay; conditions: MV4-11, 72 h
MOLM-13 = assay: Anti-proliferative activity against human MOLM-13 cells measured after 72 hrs by CCK8 assay; conditions: MOLM-13, 72 h
MM1.S = assay: Anti-proliferative activity against human MM1.S cells measured after 120 hrs by CCK8 assay
MV4-11 [4] = assay: Effect on MNK2 expression level in human MV4-11 cells at 300 nM incubated for 24 hrs by DIA-based quantitative proteomics analysis; format: functional, cell-based
MV4-11 [5] = assay: Downregulation of SUFU expression level in human MV4-11 cells at 300 nM incubated for 24 hrs by DIA-based quantitative proteomics analysis; format: functional, cell-based
MV4-11 [6] = assay: Effect on GSPT1 expression in human MV4-11 cells at 10 to 1000 nM incubated for 24 hrs by immunoblot analysis; format: functional, cell-based; conditions: dose 10-1000 nM
MV4-11 [7] = assay: Effect on IKZF3 expression in human MV4-11 cells at 10 to 1000 nM incubated for 24 hrs by immunoblot analysis; format: functional, cell-based; conditions: dose 10-1000 nM
MV4-11 [8] = assay: Effect on IKZF1 expression in human MV4-11 cells at 10 to 1000 nM incubated for 24 hrs by immunoblot analysis; format: functional, cell-based; conditions: dose 10-1000 nM
MV4-11 [9] = assay: Upregulation of apoptosis pathway related protein expression in human MV4-11 cells by GO analysis; format: functional, cell-based
MV4-11 [10] = assay: Upregulation of protein translation pathway related protein expression in human MV4-11 cells by GO analysis; format: functional, cell-based
MV4-11 [11] = assay: Upregulation of PI3K-Akt pathway related protein expression in human MV4-11 cells by GO analysis; format: functional, cell-based
MV4-11 [12] = assay: Upregulation of mTOR pathway related protein expression in human MV4-11 cells by GO analysis; format: functional, cell-based
MV4-11 [13] = assay: Upregulation of ubiquitin-mediated proteolysis pathway related protein expression in human MV4-11 cells by GO analysis; format: functional, cell-based
MV4-11 [14] = assay: Upregulation of RNA transport pathways related protein expression in human MV4-11 cells by GO analysis; format: functional, cell-based
MV4-11 [15] = assay: Upregulation of cell cycle signaling pathways related protein expression in human MV4-11 cells by KEGG analysis; format: functional, cell-based
MV4-11 [16] = assay: Induction of apoptosis in human MV4-11 cells assessed as early apoptotic cells at 30 nM incubated for 24 hrs by Annexin V-FITC/PI dual staining based flow cytometric analysis (reference value: 3.42 %); format: functional
MV4-11 [17] = assay: Induction of apoptosis in human MV4-11 cells assessed as viable cells at 100 nM incubated for 24 hrs by Annexin V-FITC/PI dual staining based flow cytometric analysis (reference value: 94.9 %); format: functional; conditions: read-out: Activity
MV4-11 [18] = assay: Induction of apoptosis in human MV4-11 cells assessed as late apoptotic cells at 100 nM incubated for 24 hrs by Annexin V-FITC/PI dual staining based flow cytometric analysis (reference value: 1.48 %); format: functional
MV4-11 [19] = assay: Induction of apoptosis in human MV4-11 cells assessed as early apoptotic cells at 300 nM incubated for 24 hrs by Annexin V-FITC/PI dual staining based flow cytometric analysis (reference value: 3.42 %); format: functional
MV4-11 [20] = assay: Induction of apoptosis in human MV4-11 cells assessed as late apoptotic cells at 300 nM incubated for 24 hrs by Annexin V-FITC/PI dual staining based flow cytometric analysis (reference value: 1.48 %); format: functional
MV4-11 [21] = assay: Induction of apoptosis in human MV4-11 cells assessed as necrotic cells at 300 nM incubated for 24 hrs by Annexin V-FITC/PI dual staining based flow cytometric analysis (reference value: 0.16 %); format: functional
MV4-11 [22] = assay: Induction of cell cycle arrest in human MV4-11 cells assessed as decrease in accumulation of cells at S phase incubated for 24 hrs by PI staining based flow cytometric analysis; format: functional; conditions: dose 30-300 µM
[23] = AUC (0 to t) in male Sprague-Dawley rat at 20 mg/kg, po measured up to 24 hrs by LC-MS analysis; format: ADME, organism-based; conditions: in vivo
[24] = AUC (0 to t) in male Sprague-Dawley rat at 5 mg/kg, ip measured up to 24 hrs by LC-MS analysis; format: ADME, organism-based; conditions: in vivo
[25] = Clearance in male Sprague-Dawley rat at 5 mg/kg, ip measured up to 24 hrs by LC-MS analysis; format: ADME, organism-based; conditions: in vivo
[26] = Hepatotoxicity in nude female NSG mouse xenografted with human MV4-11 cells assessed as change in serum ALT level at 20 mg/kg, ip qd administrated for 16 days; format: toxicity, organism-based; conditions: in vivo, 384 h, time 16 day
[27] = Hepatotoxicity in nude female NSG mouse xenografted with human MV4-11 cells assessed as change in serum ALP level at 20 mg/kg, ip qd administrated for 16 days; format: toxicity, organism-based; conditions: in vivo, 384 h, time 16 day
[28] = Hepatotoxicity in nude female NSG mouse xenografted with human MV4-11 cells assessed as change in serum TBA level at 20 mg/kg, ip qd administrated for 16 days; format: toxicity, organism-based; conditions: in vivo, 384 h, time 16 day
[29] = Toxicity in male ICR mouse assessed as histopathological change in liver at 100 mg/kg, ip measured after 14 days by hematoxylin and eosin staining based analysis; format: organism-based; conditions: in vivo, 336 h, time 14 day
[30] = Toxicity in male ICR mouse assessed as histopathological change in kidney at 100 mg/kg, ip measured after 14 days by hematoxylin and eosin staining based analysis; format: organism-based; conditions: in vivo, 336 h, time 14 day
[31] = Toxicity in male ICR mouse assessed as change in serum ALT level at 100 mg/kg, ip measured after 14 days; format: organism-based; conditions: in vivo, 336 h, time 14 day
[32] = Toxicity in male ICR mouse assessed as change in serum ALP level at 100 mg/kg, ip measured after 14 days; format: organism-based; conditions: in vivo, 336 h, time 14 day
[33] = Toxicity in male ICR mouse assessed as change in serum TBA level at 100 mg/kg, ip measured after 14 days; format: organism-based; conditions: in vivo, 336 h, time 14 day
[34] = Toxicity in male ICR mouse assessed as change in serum BUN level at 100 mg/kg, ip measured after 14 days; format: organism-based; conditions: in vivo, 336 h, time 14 day
[35] = Toxicity in male ICR mouse assessed as change in serum CK-MB level at 100 mg/kg, ip measured after 14 days; format: organism-based; conditions: in vivo, 336 h, time 14 day
[36] = Toxicity in nude female NSG mouse xenografted with human MV4-11 cells assessed as change in serum uric acid level at 20 mg/kg, ip qd administrated for 16 days; format: organism-based; conditions: in vivo, 384 h, time 16 day
[37] = Toxicity in nude female NSG mouse xenografted with human MV4-11 cells assessed as change in serum BUN level at 20 mg/kg, ip qd administrated for 16 days; format: organism-based; conditions: in vivo, 384 h, time 16 day
[38] = Toxicity in nude female NSG mouse xenografted with human MV4-11 cells assessed as change in serum creatinine level at 20 mg/kg, ip qd administrated for 16 days; format: organism-based; conditions: in vivo, 384 h, time 16 day

Q: Which Activity (Mus musculus [1]) does the source give for `O=C1CCC(N2Cc3c(NC(=O)CCCCCC(=O)N4CCC(C(=O)Nc5ncc(-c6ccccc6)s5)CC4)cccc3C2=O)C(=O)N1` (stereo not given) here?
A: The Activity was “Active”.

Q: What about the Activity (Mus musculus [2]) of the same compound?
A: The Activity was “Active”.

Q: And the IC50 (MV4-11 [3])?
A: The IC50 was 45 nM.

Q: And the IC50 (MOLM-13)?
A: Its IC50 is 610 nM.

Q: What about the IC50 (MM1.S) of the same compound?
A: Its IC50 is 240 nM.

Q: And the Activity (MV4-11 [4])?
A: Its Activity is “No effect”.

Q: What about the Activity (MV4-11 [5]) of the same compound?
A: The Activity was “Active”.

Q: And the Activity (MV4-11 [6])?
A: The Activity was “No effect”.

Q: What about the Activity (MV4-11 [7]) of the same compound?
A: Its Activity is “No effect”.

Q: And the Activity (MV4-11 [8])?
A: Its Activity is “No effect”.

Q: What about the Activity (MV4-11 [9]) of the same compound?
A: The Activity was “Active”.

Q: What about the Activity (MV4-11 [10]) of the same compound?
A: Its Activity is “Active”.

Q: What about the Activity (MV4-11 [11]) of the same compound?
A: The Activity was “Active”.

Q: What about the Activity (MV4-11 [12]) of the same compound?
A: The Activity was “Active”.

Q: What about the Activity (MV4-11 [13]) of the same compound?
A: Its Activity is “Active”.

Q: And the Activity (MV4-11 [14])?
A: Its Activity is “Active”.

Q: What about the Activity (MV4-11 [15]) of the same compound?
A: The Activity was “Active”.

Q: What about the Activity (MV4-11 [16]) of the same compound?
A: Its Activity is 6.46%.

Q: What about the viability at 0.1 µM (MV4-11 [17]) of the same compound?
A: Its viability at 0.1 µM is 71.5%.

Q: And the Activity (MV4-11 [18])?
A: The Activity was 13.7%.

Q: And the Activity (MV4-11 [19])?
A: The Activity was 28.6%.

Q: And the Activity (MV4-11 [20])?
A: Its Activity is 42.1%.

Q: What about the Activity (MV4-11 [21]) of the same compound?
A: The Activity was 1.36%.

Q: And the Activity (MV4-11 [22])?
A: Its Activity is “Dose-dependent-effect”.

Q: What about the AUC(0-t) at 24 h [23] of the same compound?
A: Its AUC(0-t) at 24 h is 2950 ng·h/mL.

Q: And the AUC(0-t) at 24 h [24]?
A: Its AUC(0-t) at 24 h is 9630 ng·h/mL.

Q: And the CL/F [25]?
A: The CL/F was 8.75 mL/min/kg.

Q: What about the Activity [26] of the same compound?
A: Its Activity is “Non-toxic”.

Q: What about the Activity [27] of the same compound?
A: Its Activity is “Non-toxic”.

Q: And the Activity [28]?
A: The Activity was “Non-toxic”.

Q: What about the Activity [29] of the same compound?
A: Its Activity is “Non-toxic”.

Q: And the Activity [30]?
A: The Activity was “Non-toxic”.

Q: And the Activity [31]?
A: Its Activity is “Non-toxic”.

Q: What about the Activity [32] of the same compound?
A: The Activity was “Non-toxic”.

Q: What about the Activity [33] of the same compound?
A: Its Activity is “Non-toxic”.

Q: And the Activity [34]?
A: Its Activity is “Non-toxic”.

Q: What about the Activity [35] of the same compound?
A: Its Activity is “Non-toxic”.

Q: What about the Activity [36] of the same compound?
A: The Activity was “Non-toxic”.

Q: And the Activity [37]?
A: The Activity was “Non-toxic”.

Q: And the Activity [38]?
A: Its Activity is “Non-toxic”.

From ChEMBL document CHEMBL6177991, “Discovery of P11-2: A Potent First-in-Class MNK1-Targeting PROTAC Degrader for the Treatment of Cancer” (J Med Chem, 2025)
